The values that follow come from patent publication US6610270B1, “In vivo determination of metabolic function for use in therapy management” (Xanthus Life Sciences, Inc., priority 1998, dated 2003).

Where two headings read alike, the source gives them in different places. Square brackets hold non-standard residues; d marks the D form. Peptide text beside a SMILES is read from it. * marks the point of attachment. pNA = O=[N+]([O-])c1ccc(N*)cc1; Abu = CC[C@H](N)C(=O)O

In data set [1] the test system is Aminopeptidase P (APP). To be noted: Human BAL.
In data set [2] the test system is Aminopeptidase P (APP). To be noted: Rat Plasma.
In data set [3] the target is T1, Dipeptidyl peptidase IV (DPPIV) (Sus scrofa, UniProt P22411).
T1 construct: purchased Sigma-Aldrich D7052
Briefly: in-vitro Michaelis-Menten assay with dipeptidyl peptidase reference enzyme. Type of data set: biochemical. To be noted: read-out: apparent Km. The source says:
Dipeptidyl peptidase reference enzyme was purchased from Sigma-Aldrich (D7052) and assayed by the standard Michaelis-Menten method described in similar studies by Barth and co-workers (Heins, et al.; Rahfeld, et al.). […] Hydrolysis of the latter was quantitated by isotope dilution GC/MS of the N-trifluoroacetyl-propyl ester, using L-2-aminobutyric[^2H5] acid as the internal standard.

A further data set concerns the target T2, DPPIV (Rattus norvegicus, UniProt P14740).
T2 construct: from tissue; host or cells: plasma of control and septic rats
Briefly: plasma enzyme activity towards DPPIV substrates in septic rat model. Type of data set: biochemical, Sprague-Dawley rats. The protocol:
(§1) Accordingly, ten male Sprague-Dawley rats, weighing approximately 300 gr., were injected with 3.5 mg/kg of GPA (prepared by sterile ultrafiltration in saline) and placed into metabolic cages for ^13CO2 collection (by alkaline trapping in seven 0.5 hour increments), in general as described by Vann et al. A blood draw of 0.4 ml was taken prior to the tracer administration to provide a baseline plasma titer for in vivo DPPIV activity. The following day, the rats were separated into a control panel and a test panel. Each of the three animals in the test panel was made septic (on Day 0) by intravenous (tail vein) adminstration of E. coli. Three control animals were sham injected with saline, and all were maintained in separate cages.
(§2) On day 2 and 6, and after a […], the administration of the “breath test” metaprobe and ^13CO2 collection was repeated. Equal aliquots of plasma were assayed for enzyme activity by spectrophotometry in two ways: a) using GP4NA (FIG. 16, structure I), a traditional and confirmatory approach, and b) using GPPaba (FIG. 16, structure III with R1 being the protonated free acid) by GC/MS quantitation of the p-aminobenzoic[1-^13C] acid (Paba, FIG. 16, structure IV) derived hydrolytically. The isotopic enrichment of the seven breath collections was measured by isotope ratio mass spectrometry, of the gas liberated after phosphoric acid protonation. The cumulative extent of metaprobe metabolism, as a per cent of dose taking into account the total CO2 production rate of each animal (Mohan et al.) was then calculated.
(§3) Also, over the 7 day experiment, the specific activity of plasma towards GP4NA in the control group averaged 29±6 nMol/min/ml while the septic titer rose to 43±7 and 49±6 on days two and six, respectively. The corresponding values of plasma activity towards GPPaba in the control group averaged 18±7 nMol/min/ml while the septic titer rose to 55±17 and 30±6 on days two and six, respectively. A “sham” breath test using 1.5 mg/kg administration of L-2-aminobutyric[1-^13C] acid in saline on day 3 of the experiment confirmed that oxidation of the release tag was similar in control and test groups, affording a cumulative oxidation of 65±8.3 and 72±9.4 per cent of dose recovery in 3 hours, respectively.

Data set [4] concerns the target T3, Dipeptidyl Peptidase IV (DPPIV/CD26) (Rattus norvegicus, UniProt P14740).
T3 construct: from tissue; host or cells: whole rat in vivo (injected dose, 13CO2 collection)
Briefly: DPPIV metaprobe breath test in the septic rat. The class given is in vivo, Sprague-Dawley rats. To be noted: 3.5 mg/kg injected. The protocol:
as §1, §2

Data set [5] in a line: sham breath test with free core tracer in septic rat model. The class given is in vivo, Sprague-Dawley rats. The conditions noted are these: 1.5 mg/kg in saline, day 3, in 3 hours. Here is the method: as §3
Data set [6] has as its system nitric oxide synthase (NOS). From the text: These studies constitute part of a continuing series intended to extend the protocols initiated by Castillo et al. (1996) and depend on intravenous metaprobe administration and mass spectral analysis of the resulting analytes extracted from plasma.
A further data set deals with T4, bovine thrombin (Bos taurus, UniProt P00735).
T4 construct: Freshly prepared solutions of bovine thrombin and bovine plasmin, from reconstituted lyophilized powders (Sigma); purchased Sigma
The data set can be described thus: metaprobe hydrolysis in solution by purified thrombin. The class given is biochemical. To be noted: 0.5 NIH unit per ml, pH 8.4, 37° C., 15 minutes. The protocol:
(§4) The suitability of substrates I-VI was tested by the enzymatic assay protocol of Svendsen. Freshly prepared solutions of bovine thrombin and bovine plasmin, from reconstituted lyophilized powders (Sigma) were prepared in tris-imidazole buffer at pH 8.4 to deliver nominally 0.5 NIH unit per ml of thrombin and 1 WHO unit of plasmin. After preincubation for 5 minutes at 37° C., 0.25 ml of an 0.5 mMolar solution of each substrate in the same aqueous buffer was added and the separate reactions incubated for 15 minutes at the same temperature. Reaction was stopped by addition of 1:9 concentrated HCl:methanol. Concentration of the supernatant, ion exchange chromatography on Dowex-50, with 2N ammonia water eluant, as a further desalting and deproteinizing step, afforded the amino acid fraction resulting from the enzymatic hydrolysis of the metaprobes. The concentration of p-aminobenzoic[1-^13C] acid (with tetradeutero isotopolog as internal quantitation standard) and of L-2-aminobutyric[1-^13C] acid (with pentadeutero isotopolog as internal quantitation standard) were then analyzed by isotope dilution GC/MS using the N-trifluoroacetyl propyl ester derivatives and the total hydrolytic conversion expressed as […]

For the next data set, the target named is T5, bovine plasmin (Bos taurus, UniProt P06868).
T5 construct: Freshly prepared solutions of bovine thrombin and bovine plasmin, from reconstituted lyophilized powders (Sigma); purchased Sigma
The data set can be described thus: metaprobe hydrolysis in solution by purified plasmin. The conditions noted are these: 1 WHO unit, pH 8.4, 37° C., 15 minutes. Type of data set: biochemical. The protocol: as §4

For a further data set, the target named is T6, thrombin (Rattus norvegicus, UniProt P18292).
T6 construct: from tissue; host or cells: unfractionated whole blood of control and septic rats
The data set can be described thus: thrombin metaprobe hydrolysis in whole blood, septic rat model. Type of data set: biochemical.

The next data set concerns thrombin and plasmin. The data set can be described thus: net coagulant potential (NCP) in whole blood, septic rat model. Type of data set: biochemical.
The next data set addresses T7, plasmin (Rattus norvegicus, UniProt Q01177).
T7 construct: from tissue; host or cells: unfractionated whole blood of control and septic rats
Briefly: plasmin metaprobe hydrolysis in whole blood, septic rat model. The class given is biochemical.

[7] abbreviates: control group, average over the 7 day experiment.

T5 sequence (P06868 584-812 limits assumed): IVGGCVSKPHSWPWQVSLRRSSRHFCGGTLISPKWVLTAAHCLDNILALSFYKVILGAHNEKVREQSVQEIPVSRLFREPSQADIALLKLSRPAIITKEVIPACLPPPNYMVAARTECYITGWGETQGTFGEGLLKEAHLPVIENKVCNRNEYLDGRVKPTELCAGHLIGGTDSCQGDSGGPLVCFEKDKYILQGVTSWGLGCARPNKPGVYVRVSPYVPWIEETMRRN
T5 sequence (P06868 104-583 limits assumed): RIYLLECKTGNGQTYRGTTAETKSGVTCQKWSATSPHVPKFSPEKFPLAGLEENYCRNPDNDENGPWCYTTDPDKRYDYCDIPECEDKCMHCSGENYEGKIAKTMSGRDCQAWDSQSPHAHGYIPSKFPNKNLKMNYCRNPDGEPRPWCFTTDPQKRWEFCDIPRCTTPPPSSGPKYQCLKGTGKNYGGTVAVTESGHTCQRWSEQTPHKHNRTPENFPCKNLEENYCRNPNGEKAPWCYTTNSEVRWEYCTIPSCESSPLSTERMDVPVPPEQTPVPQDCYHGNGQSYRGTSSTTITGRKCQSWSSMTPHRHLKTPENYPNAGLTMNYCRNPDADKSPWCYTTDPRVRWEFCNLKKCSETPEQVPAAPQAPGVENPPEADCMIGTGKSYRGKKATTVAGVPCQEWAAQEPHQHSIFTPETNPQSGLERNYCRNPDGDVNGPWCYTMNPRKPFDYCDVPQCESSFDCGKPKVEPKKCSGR
T7 sequence (Q01177 582-812 limits assumed): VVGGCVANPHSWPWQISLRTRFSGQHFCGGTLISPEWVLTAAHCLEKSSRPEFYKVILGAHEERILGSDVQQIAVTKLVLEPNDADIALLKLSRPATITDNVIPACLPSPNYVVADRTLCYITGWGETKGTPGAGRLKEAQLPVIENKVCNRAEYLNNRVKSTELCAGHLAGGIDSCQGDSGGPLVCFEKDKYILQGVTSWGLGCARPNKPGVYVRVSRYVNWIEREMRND
T7 sequence (Q01177 97-581 limits assumed): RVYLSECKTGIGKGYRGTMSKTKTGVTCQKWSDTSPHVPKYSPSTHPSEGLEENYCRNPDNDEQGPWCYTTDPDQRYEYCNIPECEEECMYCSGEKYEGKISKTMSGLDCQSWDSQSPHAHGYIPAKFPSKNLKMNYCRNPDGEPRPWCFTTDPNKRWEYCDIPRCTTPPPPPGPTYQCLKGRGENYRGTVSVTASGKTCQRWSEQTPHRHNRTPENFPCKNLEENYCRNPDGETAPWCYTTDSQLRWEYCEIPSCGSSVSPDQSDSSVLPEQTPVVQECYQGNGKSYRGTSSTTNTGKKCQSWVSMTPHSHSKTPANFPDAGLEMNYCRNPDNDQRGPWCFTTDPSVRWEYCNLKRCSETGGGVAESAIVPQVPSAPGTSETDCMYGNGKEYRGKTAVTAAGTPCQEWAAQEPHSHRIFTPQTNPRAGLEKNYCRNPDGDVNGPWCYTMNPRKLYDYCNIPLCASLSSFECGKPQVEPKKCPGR
T3 sequence (P14740 whole entry): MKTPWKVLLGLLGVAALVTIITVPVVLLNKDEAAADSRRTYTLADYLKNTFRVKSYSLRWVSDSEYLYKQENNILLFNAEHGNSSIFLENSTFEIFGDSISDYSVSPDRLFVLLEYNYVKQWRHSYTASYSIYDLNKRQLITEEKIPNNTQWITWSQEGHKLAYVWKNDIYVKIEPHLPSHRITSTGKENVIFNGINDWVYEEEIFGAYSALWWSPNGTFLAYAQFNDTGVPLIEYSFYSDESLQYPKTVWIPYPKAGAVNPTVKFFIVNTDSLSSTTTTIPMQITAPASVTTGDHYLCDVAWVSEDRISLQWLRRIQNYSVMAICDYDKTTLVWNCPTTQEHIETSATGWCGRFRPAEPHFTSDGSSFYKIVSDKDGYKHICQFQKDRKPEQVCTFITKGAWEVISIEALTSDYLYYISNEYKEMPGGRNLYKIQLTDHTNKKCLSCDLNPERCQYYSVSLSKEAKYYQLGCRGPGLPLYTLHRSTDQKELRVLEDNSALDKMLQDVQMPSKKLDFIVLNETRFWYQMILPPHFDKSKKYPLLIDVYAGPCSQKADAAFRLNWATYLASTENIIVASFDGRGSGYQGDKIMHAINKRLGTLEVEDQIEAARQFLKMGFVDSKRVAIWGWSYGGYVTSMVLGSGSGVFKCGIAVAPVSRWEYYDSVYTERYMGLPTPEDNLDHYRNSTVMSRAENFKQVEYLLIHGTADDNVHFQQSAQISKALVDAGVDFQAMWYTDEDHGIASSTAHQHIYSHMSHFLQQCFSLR
T2 sequence (P14740 37-767 limits assumed): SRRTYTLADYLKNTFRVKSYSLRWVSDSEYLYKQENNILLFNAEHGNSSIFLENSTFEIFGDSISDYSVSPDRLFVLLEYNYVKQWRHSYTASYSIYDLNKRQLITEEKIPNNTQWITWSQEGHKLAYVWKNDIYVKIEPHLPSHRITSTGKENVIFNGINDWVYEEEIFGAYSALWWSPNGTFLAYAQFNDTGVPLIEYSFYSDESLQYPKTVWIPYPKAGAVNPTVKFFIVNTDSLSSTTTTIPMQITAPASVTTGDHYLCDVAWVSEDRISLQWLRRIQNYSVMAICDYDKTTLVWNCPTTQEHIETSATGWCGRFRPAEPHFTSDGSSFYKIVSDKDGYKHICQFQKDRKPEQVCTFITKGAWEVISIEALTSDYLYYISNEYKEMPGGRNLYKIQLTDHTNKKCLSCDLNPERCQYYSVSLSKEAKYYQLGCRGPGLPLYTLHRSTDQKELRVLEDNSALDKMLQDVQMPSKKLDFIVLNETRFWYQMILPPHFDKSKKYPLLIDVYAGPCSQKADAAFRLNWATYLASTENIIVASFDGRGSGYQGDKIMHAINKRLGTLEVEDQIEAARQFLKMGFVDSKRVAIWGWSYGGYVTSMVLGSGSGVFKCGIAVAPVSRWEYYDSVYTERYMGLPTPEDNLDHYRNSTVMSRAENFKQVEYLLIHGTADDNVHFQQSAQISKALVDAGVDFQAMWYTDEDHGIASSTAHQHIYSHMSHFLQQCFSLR
T1 sequence (P22411 whole entry): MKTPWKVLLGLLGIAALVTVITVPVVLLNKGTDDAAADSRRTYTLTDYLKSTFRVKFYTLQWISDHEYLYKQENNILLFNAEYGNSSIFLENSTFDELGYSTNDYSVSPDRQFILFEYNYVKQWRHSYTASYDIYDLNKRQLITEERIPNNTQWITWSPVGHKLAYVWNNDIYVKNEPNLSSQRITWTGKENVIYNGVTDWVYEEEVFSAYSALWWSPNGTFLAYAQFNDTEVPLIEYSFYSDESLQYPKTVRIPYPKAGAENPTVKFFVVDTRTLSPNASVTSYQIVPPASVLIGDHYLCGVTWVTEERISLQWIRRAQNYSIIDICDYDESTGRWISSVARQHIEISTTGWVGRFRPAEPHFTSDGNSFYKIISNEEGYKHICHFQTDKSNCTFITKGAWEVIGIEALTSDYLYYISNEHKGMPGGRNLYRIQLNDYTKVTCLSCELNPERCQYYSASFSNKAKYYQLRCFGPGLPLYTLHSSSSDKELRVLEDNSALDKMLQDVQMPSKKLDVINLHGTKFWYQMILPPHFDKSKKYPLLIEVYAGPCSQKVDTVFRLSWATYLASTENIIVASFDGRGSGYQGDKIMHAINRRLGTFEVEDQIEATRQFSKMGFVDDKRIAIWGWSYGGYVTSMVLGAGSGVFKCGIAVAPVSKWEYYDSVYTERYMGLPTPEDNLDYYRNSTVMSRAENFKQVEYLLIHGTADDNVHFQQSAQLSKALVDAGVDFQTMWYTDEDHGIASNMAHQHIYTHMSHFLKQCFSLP

`CCOC(=O)[C@@H]1CCCN1C(=O)[C@@H]1CCCN1[13C](=O)CN` [Aminopeptidase P Metaprobe, glycyl[1-^13C]-L-prolyl-L-proline, ethyl ester]: the “% Dose metabolized” value in the data set on Aminopeptidase P (APP) [1] (Control, two hour incubation at 37° C.) was determined as 22 ± 4 % Dose; in the data set on Aminopeptidase P (APP) [1] (Test sample, ARDS) it was 44 ± 14 % Dose; in the data set on Aminopeptidase P (APP) [2] (Control), 5 ± 4 % Dose; with Aminopeptidase P (APP) [2] (Test sample, Sepsis), 28 ± 7 % Dose.

On to `NCC(=O)N1CCC[C@H]1C(=O)Nc1ccc([N+](=O)[O-])cc1` [GP4NA, Glycyl-Prolyl-4-nitro-anilide, reference compound] (H-Gly-Pro-pNA), for which the Km in data set [3] stood at 130 µM. For the same compound, the “specific activity of plasma towards substrate” value on DPPIV (setting [7]) came out at 29 ± 6 nmol/min/mL; on DPPIV (septic, day six), 49 ± 6 nmol/min/mL; on DPPIV (septic, day two), 43 ± 7 nmol/min/mL.

With `CC[C@H](NC(=O)[C@@H]1CCCN1C(=O)CN)[13C](=O)O` [GPA, glycyl-prolyl-2-aminobutyric[1-^13C] acid], the “Cumulative Per Cent of Dose Exhaled in 3 Hours” value in data set [4] (Day 1, CONTROL) is listed as 4.3 (± 0.8) Per Cent of Dose; in data set [4] (Day 1, SEPSIS), 5.7 (± 1.4) Per Cent of Dose; in data set [4] (Day 2, CONTROL), 8.9 (± 1.3) Per Cent of Dose; in data set [4] (Day 2, SEPSIS), 22.5 (± 5.3) Per Cent of Dose; in data set [4] (Day 6, CONTROL), 4.9 (± 0.8) Per Cent of Dose; in data set [4] (Day 6, SEPSIS), 9.2 (± 6.3) Per Cent of Dose.

Take `CC[C@H](NC(=O)[C@@H]1CCCN1C(=O)CN)C(=O)O` [GPA, glycyl-prolyl-2-aminobutyric[1-^13C] acid] (H-Gly-Pro-[Abu]-OH): in [3], the Km was determined as 200 µM.

For the compound `CC[C@H](N)[13C](=O)O` [L-2-aminobutyric[1-^13C] acid], the “cumulative oxidation, per cent of dose recovery” value is 65±8.3 per cent of dose in data set [5] (control group) and 72±9.4 per cent of dose in data set [5] (test (septic) group).

Regarding `N[C@@H](CCCN=C([15NH2])[15NH2])C(=O)O` [L-arginine[guanidino-^15N2]], the “NOPI2 on Admission” value in [6] (2 day average in ICU, rapid recovery, no sepsis, n = 4) is reported as 0.3 +/− 0.14 (n = 4); in data set [6] (4 day average in ICU, recovery, sepsis treated successfully, n = 4), 2.99 +/− 1.24 (n = 4); in data set [6] (7 day average in ICU, death from complications of sepsis and trauma, n = 3), 6.64 +/− 1.92 (n = 3); in data set [6] (Normal Control, healthy (not admitted), n = 4), 0.2 +/− 0.15 (n = 4).

For the compound `CCO[13C](=O)c1ccc(NC(=O)[C@H](CCCNC(=N)N)NC(=O)[C@@H]2CCCN2C(=O)[C@@H](Cc2ccccc2)NC(C)=O)cc1` [Substrate I, N-acetyl-d-phenylalanyl-L-prolyl-L-arginyl-p-aminobenzoic[1-^13C] acid, ethyl ester], the “Product formed, Thrombin” value on bovine thrombin was 6.0 nmol/min/mL. Moreover, the “Product formed, Plasmin” value on bovine plasmin turned out to be 1.8 nmol/min/mL.

Consider `CCO[13C](=O)[C@H](CC)NC(=O)[C@H](CCCNC(=N)N)NC(=O)[C@@H]1CCCN1C(=O)[C@@H](Cc1ccccc1)NC(C)=O` [Substrate II, N-acetyl-d-phenylalanyl-L-prolyl-L-arginyl-L-2-aminobutyric[1-^13C] acid, ethyl ester], for which, on bovine thrombin, the “Product formed, Thrombin” value amounted to 6.9 nmol/min/mL. In addition, the “Product formed, Plasmin” value on bovine plasmin came to 2.3 nmol/min/mL.

As to `CCO[13C](=O)c1ccc(NC(=O)C(CCCNC(=N)N)NC(=O)C2CCCN2C(=O)CNC(C)=O)cc1` [Substrate III, N-acetyl-glycyl-L-prolyl-L-arginyl-p-aminobenzoic[1-^13C] acid, ethyl ester], the “Product formed, Thrombin” value on bovine thrombin is 6.6 nmol/min/mL. For the same compound, the “Product formed, Plasmin” value on bovine plasmin is 3.6 nmol/min/mL.

Consider `CCO[13C](=O)[C@H](CC)NC(=O)[C@H](CCCNC(=N)N)NC(=O)[C@@H]1CCCN1C(=O)CNC(C)=O` [Substrate IV, N-acetyl-glycyl-L-prolyl-L-arginyl-L-2-aminobutyric[1-^13C] acid, ethyl ester], for which, on bovine thrombin, the “Product formed, Thrombin” value came out at 7.8 nmol/min/mL. The “Product formed, Plasmin” value at bovine plasmin stood at 3.1 nmol/min/mL. For the same compound, the “Percent of Metaprobe Dose Metabolized” value turned out to be 22 ± 9% on thrombin (Control, Day 0); 76 ± 15% on thrombin (Septic, Day 2); 39 ± 12% on thrombin (Septic, Day 6); 25 ± 10% at thrombin (Septic, Day 10). The “NCP, net coagulant potential (difference between metaprobe IV and VI)” value in the data set on thrombin and plasmin (Control, Day 0) is listed as 11 ± 10%; with thrombin and plasmin (Septic, Day 2), 62 ± 17%; in the data set with thrombin and plasmin (Septic, Day 6), −13 ± 21%; in the data set with thrombin and plasmin (Septic, Day 10) it was 2 ± 15%.

Consider `CCO[13C](=O)c1ccc(NC(=O)[C@H](CCCCN)NC(=O)[C@H](CC(C)C)NC(=O)[C@@H](N)CC(C)C)cc1` [Substrate V, L-leucyl-L-leucyl-L-lysyl-p-aminobenzoic[1-^13C] acid, ethyl ester], for which, at bovine thrombin, the “Product formed, Thrombin” value was determined as 0.3 nmol/min/mL. Also, the “Product formed, Plasmin” value on bovine plasmin stood at 7.2 nmol/min/mL.

Take `CCO[13C](=O)[C@H](CC)NC(=O)[C@H](CCCCN)NC(=O)[C@H](CC(C)C)NC(=O)[C@@H](N)CC(C)C` [Substrate VI, L-leucyl-L-leucyl-L-lysyl-L-2-aminobutyric[1-^13C] acid, ethyl ester]: the “Product formed, Thrombin” value at bovine thrombin was determined as 0.4 nmol/min/mL. Further, the “Product formed, Plasmin” value on bovine plasmin is 8.1 nmol/min/mL. The “Percent of Metaprobe Dose Metabolized” value at plasmin (Control, Day 0) was determined as 11 ± 5%; on plasmin (Septic, Day 2) it was 14 ± 7%; on plasmin (Septic, Day 6), 52 ± 17%; on plasmin (Septic, Day 10) it was 23 ± 12%.

Consider “gylcyl-prolyl-p-aminobenzoic[1-^13C] acid [GPPaba]”, for which the “specific activity of plasma towards substrate” value worked out at 18 ± 7 nmol/min/mL on DPPIV (setting [7]); 30 ± 6 nmol/min/mL on DPPIV (septic, day six); 55 ± 17 nmol/min/mL at DPPIV (septic, day two).
